The target of the assay is T1, PNPLA3 I148M-tagRFP (Homo sapiens, UniProt Q9NST1, I148M).
T1 construct: host or cells: Huh7
T1 sequence (Q9NST1 1-481 I148M): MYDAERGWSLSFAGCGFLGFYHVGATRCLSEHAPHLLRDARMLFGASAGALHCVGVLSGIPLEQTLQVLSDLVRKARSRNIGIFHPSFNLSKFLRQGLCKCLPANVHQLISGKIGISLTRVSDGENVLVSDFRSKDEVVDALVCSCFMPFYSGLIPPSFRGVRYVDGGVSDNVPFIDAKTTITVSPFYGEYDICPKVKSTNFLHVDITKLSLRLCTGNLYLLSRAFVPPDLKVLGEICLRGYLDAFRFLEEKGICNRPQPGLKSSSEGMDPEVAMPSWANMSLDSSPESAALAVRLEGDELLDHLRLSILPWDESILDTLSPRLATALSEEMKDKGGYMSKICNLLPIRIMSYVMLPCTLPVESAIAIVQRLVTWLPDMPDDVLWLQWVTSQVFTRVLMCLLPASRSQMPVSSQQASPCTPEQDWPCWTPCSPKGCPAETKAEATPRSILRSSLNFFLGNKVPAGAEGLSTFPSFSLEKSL
The assay can be described thus: Time-lapse imaging of PNPLA3 I148M-tagRFP on lipid droplets in Huh7 cells. Type of assay: cell-based. As for the experimental part: To evaluate the kinetics of NUV-244 mediated reduction and degradation of PNPLA3 I148M-tagRFP, we performed time-lapse studies to follow PNPLA3 I148M-tagRFP over time (Figures 5A and 5B). 1μM or 5μM NUV-244 leads to rapid onset of reduction of PNPLA3 I148M-tagRFP on lipid droplets with half maximum effect reached after approximately 2h. To evaluate if PNPLA3 I148M-tagRFP degradation is 26S proteasome dependent, 1μM Bortezomib was co-incubated with NUV-244. Proteasome inhibition prevents PNPLA3 I148M-tagRFP reduction from lipid droplets (Figures 5A and 5B). […] A recent paper identified the E3 ligase responsible for the turnover of endogenous PNPLA3, the ER associated E3 ligase BFAR.[18]
Huh7 cells expressing PNPLA3 I148M-tagRFP were seeded at 4000 cells/well in 30 μL media in 384-well imaging plates (Revvity, PhenoPlate) and stored in a 37°C incubator with 5% CO2 and 95% humidity overnight. Cells were then incubated with Bodipy diluted in growth medium (38nM final concentration) for 1h at 37°C with 5% CO2 and 95% humidity. Cells were treated with DMSO control, 1 μM or 5 μM NUV-244, with or without 1 μM Bortezomib or 5 μM MLN7243. Cells were imaged every 15 minutes over a 20-hour period using an Opera Phenix confocal spinning disc microscope system (Revvity) with a 20x water objective at 561 nm (tagRFP) and 488 nm (BODIPY). Images were analyzed using Harmony software. PNPLA3 I148M-tagRFP intensity on lipid droplets was quantified and compared between treatments.

Structures are written as SMILES.

Regarding `CC(C)C[C@H](NC(=O)[C@H](Cc1ccccc1)NC(=O)c1cnccn1)B(O)O` [Bortezomib], for the setting “1μM co-treatment with 1μM or 5μM NUV-244”, the “effect of co-treatment on NUV-244 induced decrease of PNPLA3 I148M-tagRFP on lipid droplets” value was “rescue of degradation”. Regarding `NS(=O)(=O)OC[C@H]1C[C@@H](Nc2ccnc3cc(-c4cccc(SC(F)(F)F)c4)nn23)[C@H](O)[C@@H]1O` [MLN7243], the “effect of co-treatment on NUV-244 induced decrease of PNPLA3 I148M-tagRFP on lipid droplets” value (5μM co-treatment with 1μM or 5μM NUV-244) was “rescue of degradation”.

These data come from publication PMC12049818, “Identification of NUV-244 as a PNPLA3 I148M degrading small molecule” (iScience, 2025).
